Data: patent US9855281B2, “Libido-enhancing therapeutic and use” (Scott Freeman Consultant, LLC, priority 2013, dated 2018)
Entries after “also recorded” stand apart in the source; their conditions may differ.

Experiments:
[1] = tested on: human; assay: Accidental physical contact of a human with the compositions (Example 1); type: in vivo; details: accidental physical contact with Formulas (I), (II) and (III) together while synthesizing
Text: A human came in physical contact with the compositions of the libido-enhancing therapeutics of Formula (I), Formula (II), and Formula (III) by accident while synthesizing the compositions.

[2] = tested on: male rats; assay: In vivo libido stimulation assessment (mounts of rat couples); parameters: species or system Rattus novergicus, Wistar; details: for mount kinetics profile along the night: FIGS. 12A-12F, time after coupling
Protocol: Female and male rats (Rattus novergicus) Wistar strain, with 200-280 g and 8-12 weeks old, were purchased from University of São Paulo Central Animal Care Unity. They were kept in controlled environment, including dark-light periods (12 hours each), temperature (22° to 25° C.), and with free access to water and food.
Female Wistar rats, weighing about 250 g, were ovariectomized. The procedure initiated inducing general anesthesia with Dopalen (Ketamin 70 mg/kg) and Anasedan (Xilazin 12 mg/kg), then abdominal wall was […] by the linea alba region, ovaries location, ligation of vessels supplying the ovaries and the procedure was completed with ovariectomy, itself, as well as the suture of the abdominal wall and skin. After surgery the animals received analgesic (tramadol 2 mg/kg), antibiotic (enrofloxacin, 10 mg/kg) and anti-inflammatory (Maxicam—2 mg/kg) for at least one week, or more if necessary.
Pseudo-estrus inducing. The females received estradiol (0.2 mg/day) subcutaneously for two weeks after ovariotomoy for pseudo-estrus state inducing. This condition was evaluated by vaginal smears each two days after estradiol treatment beginning. Sterile cotton-tipped swabs wetted in distilled water were gently and quickly introduced into the vaginal orifice, carefully rotated (one twist) against the vaginal wall. Rats were not anesthetized during smear collection. Afterwards, the collected sample of vaginal epithelial cells was placed on glass slides, dried at 37° C., and fixed in an ethanol-ether solution (1:1) for one minute.
The slides were then examined under light microscopy. Only females in pseudo-estrus conditions were used for libido stimulation assessment (PACCOLA et al, 2013).
Libido stimulation assessment. For libido stimulation assessments, first male rats, weighing about 250-280 g, had their penis anesthetized with 2% lidocaine by topical route 10 minutes before treatment. The three drugs were administered orally at 50 mg/kg each two days for six days (each rat received three doses). Nandrolone (IM) was used as the positive control group while olive oil and water were used as negative controls (orally administrated), as described below in TABLE 2. After one hour of treatment, couples were put together in a box, and a video camera with night vision was adequately positioned to encompass all the groups in the video, recording overnight the matches.
Analysis of the videos was performed according to the following parameters: time to first mating, duration of mounts, and quantity of mounts.
The libido studies focused the investigation in how drugs would stimulate male rats to increase matching. Considering that sexual activity in animals is related with reproduction and not only with pleasure, assessment of increase desire is particular subjective. To ensure that the observations were related with Central Nervous System modulation, 2% Lidocaine was topically applied at penis glans, to avoid any local stimulation.
The animals were treated each two days with 50 mg/Kg of test drugs (given orally), water and olive oil as negative control (given orally) and nandrolone (IM).

[3] = rats, 50 mg/Kg orally, nandrolone IM

## CC(=O)O[C@H]1CCC2C3CC[C@H]4CC(=O)CC[C@H]4C3CC[C@@]21C (stereo partly drawn) [Formula (I), (5S,10R,13S,17S)-13-methyl-3-oxohexadecahydro-1H-cyclopenta[a]phenanthren-17yl acetate]
[1]
  arousal and libido: weekend-long period of arousal and increased libido
[2]; FIG. 10, 50 mg/Kg orally each two days, three doses, nandrolone IM, compared with controls and other drugs
  total number of mounts after each treatment: significantly increased
[2]; FIG. 11, 50 mg/Kg orally, nandrolone IM
  number of mounts per hour, difference to nandrolone: more than twice
[2]; 50 mg/Kg orally, nandrolone IM, listed as CAS 5138-34-1, 50 mg/kg
  mount kinetics profile along the night: low activity at the first three hours after coupling; also recorded: intense and sustainable activity was achieved after the third hour until the seventieth hour of observation
[2]; 50 mg/Kg orally, nandrolone IM, listed as CAS 5238-34-1, 50 mg/kg
  mount kinetics profile along the night: took a long time to have some effect
[2]; rats, 50 mg/Kg orally
  stress or fatigue after each intercourse: no kind of stress of fatigue was observed
[2]; [3]
  libido stimulation: effective and sustainable late libido stimulation for greater than seven hours

## CC(=O)O[C@H]1CCC2C3CC[C@H]4C[C@@H](O)CC[C@H]4C3CC[C@@]21C (stereo partly drawn) [Formula (II), (3S,5S,10R,13S,17S)-3-hydroxy-13-methylhexadecahydro-1H-cyclopenta[a]phenanthren-17yl acetate]
[1]
  arousal and libido: weekend-long period of arousal and increased libido
[2]; 50 mg/Kg orally, nandrolone IM
  mount kinetics profile along the night: total decrease of activity after 2 hours coupling

## C[C@]12CCC3C(CC[C@H]4CC(=O)CC[C@H]34)C1CC[C@@H]2O (stereo partly drawn) [Formula (III), (5S,10S,13S,17S)-17-hydroxy-13-methyltetradecahydro-1H-cyclopenta[a]phenanthren-3(2H)-one]
[1]
  arousal and libido: weekend-long period of arousal and increased libido
[2]; 50 mg/Kg orally, nandrolone IM
  mount kinetics profile along the night: few mounts in subsequently hours

## C[C@]12CC[C@H]3[C@@H](CCC4=CC(=O)CC[C@@H]43)[C@@H]1CC[C@@H]2O [Nandrolone, reference compound]
[2]; 50 mg/Kg orally, nandrolone IM
  mount kinetics profile along the night: low stimulation at the first three hours with a peak of activity at the fourth hour retuning to baseline (zero activity) at the sixth hour
[2]; [3]
  libido stimulation: enhance libido early (hours)
